Measured values published in patent US20200375999A1, “PHARMACEUTICAL COMBINATIONS OF EGFR INHIBITORS AND METHODS OF USE THEREOF” (DANA-FARBER CANCER INSTITUTE, INC., priority 2018, published 2020).
Read-outs that look alike come from different tables or passages of the source.

Tests used:
[1] = biological target: T1, EGFR T790M/L858R Ba/F3 cell line (Homo sapiens, UniProt P00533, T790M/L858R, cells depend on it); assay: Ba/F3 cell proliferation (MTS assay), EGFR T790M/L858R; format: cell-based, murine; conditions: for Activity (% cetuximab); inhibition of proliferation: compound at 1 μM in the presence of 1 μg/mL cetuximab; for Activity (% cetuximab); inhibition of proliferation / Activity (% DMSO control); inhibition of proliferation: EGFR T790M/L858R Ba/F3; for Activity (% DMSO control); inhibition of proliferation: compound at 1 μM
T1 construct: "The constructs were shuttled into the retroviral vector JP1540 using the BD Creator™ System (BD Biosciences)
Experimental: All cell lines were maintained in RPM 1640 (Cellgro; Mediatech Inc., Herndon, Calif.) supplemented with 10% FBS 100 units/mL penicillin, 100 units/mL streptomycin, and 2 mM glutamine. […] The EGFR 1941R mutation was introduced via site directed mutagenesis using the Quick Change Site-Directed Mutagenesis kit (Stratagene: La Jolla, Calif.) according to the manufacturer's instructions. All constructs were confirmed by DNA sequencing. The constructs were shuttled into the retroviral vector JP1540 using the BD Creator™ System (BD Biosciences). Ba/F3 cells were infected with retrovirus and according to standard protocols, as described previously (Zhou 2009). Stable clones were obtained by selection in puromycin (2 μg/ml).
Growth and inhibition of growth was assessed by MTS assay and was performed according to previously established methods (Zhou 2009). The MTS assay is a colorimetric method for determining the number of viable cells that is based on the bioreduction of MTS by cells to a formazan product that is soluble in cell culture medium and can be detected spectrophotometrically. […] All experimental points were set up in six wells and all experiments were repeated at least three times. […] The curves were fitted using anon-linear regression model with a sigmoidal dose response.

[2] = test system: EGFR L858R/T790M/C797S Ba/F3 cell line; assay: Ba/F3 cell proliferation (MTS assay), EGFR L858R/T790M/C797S; format: cell-based, murine; conditions: for Activity (% cetuximab); inhibition of proliferation: compound at 1 μM in the presence of 1 μg/mL cetuximab, EGFR L858R/T790M/C797S; for Activity (% DMSO control); inhibition of proliferation: compound at 1 μM, EGFR L858R/T790M/C797S Ba/F3
Experimental: The EGFR mutant L858R, Del E746_A750, L858R/T790M, DelE746_A750/T790M, L858R/T790M/C797S and Del/T790M/C797S Ba/F3 cells were previously described (Zhou et al., Nature 462, (2009), 1070-1074). All cell lines were maintained in RPM 1640 (Cellgro; Mediatech Inc., Herndon, Calif.) supplemented with 10% FBS 100 units/mL penicillin, 100 units/mL streptomycin, and 2 mM glutamine. L858R cells were maintained in ACL-4 media (Invitrogen, Carlsbad, Calif.) supplemented with 5% FBS, 100 units/mL penicillin, 100 units/mL streptomycin, and 2 mM glutamine. The EGFR 1941R mutation was introduced via site directed mutagenesis using the Quick Change Site-Directed Mutagenesis kit (Stratagene: La Jolla, Calif.) according to the manufacturer's instructions. All constructs were confirmed by DNA sequencing. The constructs were shuttled into the retroviral vector JP1540 using the BD Creator™ System (BD Biosciences). Ba/F3 cells were infected with retrovirus and according to standard protocols, as described previously (Zhou 2009). Stable clones were obtained by selection in puromycin (2 μg/ml).
Growth and inhibition of growth was assessed by MTS assay and was performed according to previously established methods (Zhou 2009). The MTS assay is a colorimetric method for determining the number of viable cells that is based on the bioreduction of MTS by cells to a formazan product that is soluble in cell culture medium and can be detected spectrophotometrically. Ba/F3 cells of different EGFR genotypes were exposed to treatment and the number of cells used per experiment determined empirically and has been previously established (Zhou 2009). All experimental points were set up in six wells and all experiments were repeated at least three times. […] The curves were fitted using anon-linear regression model with a sigmoidal dose response.

[3] = biological target: T2, recombinant EGFR T790M/L858R kinase (Homo sapiens, UniProt P00533, L858R/T790M); assay: HTRF-based EGFR biochemical assay
T2 construct: Constructs spanning residues 696-1022 of the human EGFR; GST (cleaved yes); made in house; host or cells: Sf9 insect cells
Experimental: EGFR kinase proteins were purified by glutathione-affinity chromatography followed by size-exclusion chromatography after cleavage with TEV or thrombin to remove the GST fusion partner following established procedures. (Yun 2008; Yun 2007).
EGFR biochemical assays were carried out using a homogeneous time-resolved fluorescence (HTRF) assay as described previously. The reaction mixtures contained 1 μM biotin-Lck-peptide substrate, wild type or mutant EGFR enzyme in reaction buffer (50 mM HEPES pH 7.1, 10 mM MgCl2, 0.01% BSA. 1 mM TCEP and 0.1 mM Na3VO4) at a final volume of 10 μL. […] All reactions were carried out at room temperature in white ProxiPlate™ 384-well Plus plates (PerkinElmer) and were quenched with 5 μL of 0.2 M EDTA at 60 min. Five μL per well of the detection reagent containing 2.5 ng PT66K (Cis-bio) and 0.05 μg SAXL (Prozyme) were added, and the plates were then incubated at room temperature for 1 hour and read with an EnVision plate reader.

[4] = absence of cetuximab, read-out: Ba/F3 cellular activity (EC50) T790M/L858R
[5] = read-out: Ba/F3 cellular activity (EC50) T790M/L858R + Cetuximab (1 μg/mL), presence of 1 μg/mL cetuximab

T1 sequence (P00533 whole entry T790M/L858R): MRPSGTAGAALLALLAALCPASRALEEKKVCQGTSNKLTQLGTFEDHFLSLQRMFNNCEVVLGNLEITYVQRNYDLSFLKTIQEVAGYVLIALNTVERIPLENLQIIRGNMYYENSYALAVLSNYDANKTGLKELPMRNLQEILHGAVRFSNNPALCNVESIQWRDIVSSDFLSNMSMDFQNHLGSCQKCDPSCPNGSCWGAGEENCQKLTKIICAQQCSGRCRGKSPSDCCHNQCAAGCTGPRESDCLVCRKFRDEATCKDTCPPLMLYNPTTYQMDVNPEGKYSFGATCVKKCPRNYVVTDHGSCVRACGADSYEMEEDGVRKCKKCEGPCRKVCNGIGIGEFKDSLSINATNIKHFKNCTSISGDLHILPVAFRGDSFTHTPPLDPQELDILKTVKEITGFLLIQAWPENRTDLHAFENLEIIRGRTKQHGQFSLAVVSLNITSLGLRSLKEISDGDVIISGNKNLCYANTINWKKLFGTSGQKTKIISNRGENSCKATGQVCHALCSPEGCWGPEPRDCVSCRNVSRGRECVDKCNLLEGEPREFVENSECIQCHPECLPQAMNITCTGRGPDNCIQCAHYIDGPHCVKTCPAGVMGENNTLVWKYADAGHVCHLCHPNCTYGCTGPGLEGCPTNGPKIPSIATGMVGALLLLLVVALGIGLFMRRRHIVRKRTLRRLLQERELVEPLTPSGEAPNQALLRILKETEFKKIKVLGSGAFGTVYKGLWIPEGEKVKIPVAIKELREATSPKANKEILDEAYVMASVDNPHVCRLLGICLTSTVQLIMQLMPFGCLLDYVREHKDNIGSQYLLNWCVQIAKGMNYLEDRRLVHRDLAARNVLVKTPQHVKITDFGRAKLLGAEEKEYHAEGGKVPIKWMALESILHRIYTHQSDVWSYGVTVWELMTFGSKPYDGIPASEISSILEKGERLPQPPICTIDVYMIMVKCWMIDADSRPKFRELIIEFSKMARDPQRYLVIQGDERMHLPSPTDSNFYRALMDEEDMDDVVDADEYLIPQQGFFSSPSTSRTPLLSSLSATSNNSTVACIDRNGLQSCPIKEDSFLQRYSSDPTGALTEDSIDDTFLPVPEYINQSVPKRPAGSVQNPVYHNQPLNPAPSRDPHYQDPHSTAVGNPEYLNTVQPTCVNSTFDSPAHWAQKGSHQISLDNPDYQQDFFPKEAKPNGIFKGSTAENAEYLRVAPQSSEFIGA
T2 sequence (P00533 696-1022 T790M/L858R): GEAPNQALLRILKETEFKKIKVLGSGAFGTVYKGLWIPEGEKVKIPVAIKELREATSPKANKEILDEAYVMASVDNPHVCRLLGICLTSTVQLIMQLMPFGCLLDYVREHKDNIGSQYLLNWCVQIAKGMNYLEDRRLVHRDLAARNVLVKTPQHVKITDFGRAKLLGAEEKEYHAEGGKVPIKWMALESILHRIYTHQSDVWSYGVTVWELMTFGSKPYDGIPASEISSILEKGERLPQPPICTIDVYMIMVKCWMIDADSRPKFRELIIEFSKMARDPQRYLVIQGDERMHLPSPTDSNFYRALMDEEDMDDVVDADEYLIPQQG

Row | Compound | EC50 [1, 4] [nM] | Activity (% cetuximab); inhibition of proliferation [1] | Activity (% DMSO control); inhibition of proliferation [1] | EC50 [1, 5] [nM] | IC50 [3] [nM] | Activity (% cetuximab); inhibition of proliferation [2] | Activity (% DMSO control); inhibition of proliferation [2]
1 | O=C1c2cc(-c3ccc(N4CCNCC4)cc3)ccc2Nc2ccc(F)cc2N1Cc1ccccc1 [Compound I-1] | ≥ 750 | B (25 ≤ B < 50) | D (75 ≤ D) | 500 to 750 | – | B (25 ≤ B < 50) | D (75 ≤ D)
2 | CN1CCC(n2cc(-c3ccc4c(c3)C(=O)N(Cc3ccccc3)c3cc(F)ccc3N4)cn2)CC1 [Compound I-3] | ≥ 750 | B (25 ≤ B < 50) | D (75 ≤ D) | < 250 | < 250 | C (50 ≤ C < 75) | D (75 ≤ D)
3 | O=C1c2cc(-c3ccc(-c4cn[nH]c4)cc3)ccc2Nc2ccc(F)cc2N1Cc1ccccc1 [Compound I-4] | ≥ 750 | A (0 ≤ A < 25) | D (75 ≤ D) | 250 to 500 | < 250 | A (0 ≤ A < 25) | D (75 ≤ D)
4 | O=C1c2cc(-c3ccc(N4CCNCC4)cc3)ccc2Nc2ccc(F)cc2N1c1ccccc1 [Compound I-5] | ≥ 750 | D (75 ≤ D) | D (75 ≤ D) | ≥ 750 | ≥ 750 | D (75 ≤ D) | D (75 ≤ D)
5 | O=C1c2cc(-c3ccc(N4CCNCC4)cc3)ccc2Nc2ccc(F)cc2N1Cc1cccnc1 [Compound I-6] | ≥ 750 | D (75 ≤ D) | D (75 ≤ D) | ≥ 750 | ≥ 750 | D (75 ≤ D) | D (75 ≤ D)
6 | O=C1c2cc(-c3ccc(N4CCNCC4)cc3)ccc2Nc2ccc(F)cc2N1Cc1nccs1 [Compound I-7] | ≥ 750 | C (50 ≤ C < 75) | D (75 ≤ D) | ≥ 750 | < 250 | D (75 ≤ D) | D (75 ≤ D)
7 | O=C1c2cc(-c3ccc4[nH]ccc4c3)ccc2Nc2ccc(F)cc2N1c1ccccc1 [Compound I-8] | ≥ 750 | D (75 ≤ D) | D (75 ≤ D) | ≥ 750 | ≥ 750 | D (75 ≤ D) | D (75 ≤ D)
8 | O=C1c2cc(-c3ccc(N4CCNCC4)cc3)ccc2Nc2ncc(F)cc2N1Cc1ccccc1 [Compound I-12] | ≥ 750 | – | – | ≥ 750 | ≥ 750 | – | –
9 | O=C1c2cc(-c3ccc(N4CCNCC4)cc3)ccc2Nc2ccncc2N1Cc1ccccc1 [Compound I-13] | ≥ 750 | – | – | ≥ 750 | ≥ 750 | – | –
10 | CC(=O)Nc1ccc2c(c1)N(Cc1ccccc1)C(=O)c1cc(-c3ccc4[nH]ccc4c3)ccc1N2 [Compound I-15] | ≥ 750 | – | – | ≥ 750 | ≥ 750 | – | –
11 | CN1CCC(c2ccc(-c3ccc4c(c3)C(=O)N(Cc3ccccc3)c3cc(F)ccc3N4)cc2)CC1 [Compound I-17] | – | – | – | – | < 250 | – | –
12 | O=C1c2cc(-c3ccc(N4CCNCC4)cc3)ccc2Nc2ccc(F)cc2N1Cc1cccc2cc[nH]c12 [Compound I-18] | ≥ 750 | – | – | < 250 | < 250 | – | –
13 | CN1CCN(c2ccc(Oc3ccc4c(c3)C(=O)N(Cc3ccccc3)c3cc(F)ccc3N4)cc2)CC1 [Compound I-20, 10-benzyl-8-fluoro-2-(4-(4-methylpiperazin-1-yl)phenoxy)-5,10-dihydro-11H-dibenzo[b,e][1,4]diazepin-11-one] | ≥ 750 | – | – | 250 to 500 | < 250 | – | –
14 | CN1CCC(n2cc(-c3ccc4c(c3)C(=O)N(Cc3cccc5cc[nH]c35)c3cc(F)ccc3N4)cn2)CC1 [Compound I-25] | ≥ 750 | – | – | ≥ 750 | < 250 | – | –

Now from value to molecule, other results behind:

Row | EC50 [1, 4] [nM] | Activity (% cetuximab); inhibition of proliferation [1] | Activity (% DMSO control); inhibition of proliferation [1] | EC50 [1, 5] [nM] | IC50 [3] [nM] | Compound | Activity (% cetuximab); inhibition of proliferation [2] | Activity (% DMSO control); inhibition of proliferation [2]
15 | ≥ 750 | B (25 ≤ B < 50) | D (75 ≤ D) | < 250 | < 250 | O=C1c2cc(-c3ccc4[nH]ccc4c3)ccc2Nc2ccc(F)cc2N1Cc1ccccc1 [Compound I-2] | A (0 ≤ A < 25) | D (75 ≤ D)
16 | ≥ 750 | D (75 ≤ D) | D (75 ≤ D) | ≥ 750 | ≥ 750 | O=C1c2cc(-c3ccc4[nH]ccc4c3)ccc2Nc2ccc(F)cc2N1Cc1cccnc1 [Compound I-9] | D (75 ≤ D) | D (75 ≤ D)
17 | ≥ 750 | D (75 ≤ D) | D (75 ≤ D) | ≥ 750 | ≥ 750 | O=C1c2cc(-c3ccc4[nH]ccc4c3)ccc2Nc2ccc(F)cc2N1Cc1nccs1 [Compound I-10] | C (50 ≤ C < 75) | D (75 ≤ D)
18 | ≥ 750 | – | – | ≥ 750 | ≥ 750 | Nc1ccc2c(c1)N(Cc1ccccc1)C(=O)c1cc(-c3ccc4[nH]ccc4c3)ccc1N2 [Compound I-14] | – | –
19 | 250 to 500 | – | – | 250 to 500 | ≥ 750 | CCC(=O)Nc1ccc2c(c1)N(Cc1ccccc1)C(=O)c1cc(-c3ccc4[nH]ccc4c3)ccc1N2 [Compound I-16] | – | –
20 | ≥ 750 | – | – | ≥ 750 | ≥ 750 | O=C1c2cc(-c3ccc(N4CCNCC4)cc3)ccc2Nc2ccc(F)cc2N1Cc1ccc2cc[nH]c2c1 [Compound I-19] | – | –
21 | – | – | – | – | < 250 | CN1CCC(n2cc(-c3ccc4c(c3)C(=O)N(Cc3cccc(F)c3)c3cc(F)ccc3N4)cn2)CC1 [Compound I-22] | – | –
22 | ≥ 750 | – | – | ≥ 750 | < 250 | CN1CCC(n2cc(-c3ccc4c(c3)C(=O)N(Cc3cccc(Cl)c3)c3cc(F)ccc3N4)cn2)CC1 [Compound I-23] | – | –
23 | ≥ 750 | – | – | ≥ 750 | < 250 | CN1CCC(n2cc(-c3ccc4c(c3)C(=O)N(Cc3cc(F)cc(F)c3)c3cc(F)ccc3N4)cn2)CC1 [Compound I-24] | – | –
24 | ≥ 750 | – | – | 250 to 500 | < 250 | O=C1c2cc(Br)ccc2Nc2ccc(F)cc2N1Cc1ccccc1 [I-a] | – | –
